# Molecular target: PKM2 (Homo sapiens, UniProt P14618)
# Test: PKM2 Assay (activation, LDH-coupled, absorbance at 340 nm)
# Format: biochemical
# Conditions: Table 4
# Experimental: • PKM2 stock enzyme solution was diluted in Reaction Buffer • 2 μL of compound was added into each well first, and then 180 μL of the Reaction Mix was added. • Reaction mixture with compound (without ADP) was incubated for 30 minutes at 4° C. • Plates were re-equilibrated to room temperature prior to adding 20 μL ADP to initiate the reaction. • Reaction progress was measured as changes in absorbance at 340 nm wavelength at room temperature (25° C.) Reaction Mix: PKM2 (50 ng/well), ADP (0.7 mM), PEP (0.15 mM), NADH (180 μM), LDH (2 units) in Reaction Buffer Reaction Buffer: 100 mM KCl, 50 mM Tris pH 7.5, 5 mM MgCl2, 1 mM DTT, 0.03% BSA.
# Representative compounds of the invention were tested for their ability to activate PKM2 using the above assay. For simplicity, the activation activity of these compounds is represented as an AC50 in Tables 4 and 5 and throughout the application. […] “B” refers to an activator of PKM2 with an EC50 between 100 nM and 500 nM. “C” refers to an activator of PKM2 with an EC50 between 500 nM and 1000 nM. “D” refers to an activator of PKM2 with an EC50 between 1 μM and 20 μM. “E” refers a compound whose activation of PKM2 was not measurable. “N/C” refers to AC50 data not available.
# Sequence of PKM2 (P14618 whole entry): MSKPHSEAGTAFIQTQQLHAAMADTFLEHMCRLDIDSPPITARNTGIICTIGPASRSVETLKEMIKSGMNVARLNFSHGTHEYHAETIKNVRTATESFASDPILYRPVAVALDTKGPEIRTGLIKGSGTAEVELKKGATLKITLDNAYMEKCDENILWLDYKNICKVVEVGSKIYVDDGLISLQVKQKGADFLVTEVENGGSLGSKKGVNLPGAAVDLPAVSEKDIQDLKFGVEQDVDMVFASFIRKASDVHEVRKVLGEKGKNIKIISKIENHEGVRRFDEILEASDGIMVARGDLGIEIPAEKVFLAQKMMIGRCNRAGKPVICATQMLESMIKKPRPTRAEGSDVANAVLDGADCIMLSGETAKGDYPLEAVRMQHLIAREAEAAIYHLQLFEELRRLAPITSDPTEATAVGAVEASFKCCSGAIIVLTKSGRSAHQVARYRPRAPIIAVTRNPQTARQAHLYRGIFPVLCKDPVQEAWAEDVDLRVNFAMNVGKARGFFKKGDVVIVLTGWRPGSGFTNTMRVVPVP
row,AC50 [nM],SMILES
1,1000 to 20000,CC1CN(C(=O)c2ccccn2)CC(C)N1C(=O)c1ccc(NS(=O)(=O)c2cccc3cccnc23)cc1 (racemic) [Compound 116]
2,< 100,"C[C@H]1CN(C[C@H]2CCCO2)CCN1C(=O)c1ccc(NS(=O)(=O)c2cccc3cccnc23)cc1 (stereo in doubt) [Compound 211, N-(4-((2S)-2R-methyl-4-((tetrahydrofuran-2-yl)methyl)piperazine-1-carbonyl)phenyl)quinoline-8-sulfonamide]"
3,100 to 500,C[C@H]1CN(C(=O)c2ccc(NS(=O)(=O)c3cccc4cccnc34)cc2)CCN1C(=O)c1ccccn1 [Compound 100]
4,100 to 500,C[C@H]1CN(C(=O)c2ccccn2)CCN1C(=O)c1ccc(NS(=O)(=O)c2cccc3cccnc23)cc1 [Compound 101]
5,100 to 500,C[C@@H]1CN(C(=O)c2ccc(NS(=O)(=O)c3cccc4cccnc34)cc2)CCN1C(=O)c1ccccn1 [Compound 102]
6,100 to 500,C[C@@H]1CN(C(=O)c2ccccn2)CCN1C(=O)c1ccc(NS(=O)(=O)c2cccc3cccnc23)cc1 [Compound 103]
7,100 to 500,"CC(C)COC(=O)N1[C@H](C)CN(C(=O)c2ccc(NS(=O)(=O)c3cccc4cccnc34)cc2)C[C@@H]1C [Compound 105, (2S,6R)-isobutyl-2,6-dimethyl-4-(4-(quinoline-8-sulfonamido)benzoyl)piperazine-1-carboxylate]"
8,100 to 500,"CC(C)OC(=O)N1[C@H](C)CN(C(=O)c2ccc(NS(=O)(=O)c3cccc4cccnc34)cc2)C[C@@H]1C [Compound 106, (2S,6R)-isopropyl 2,6-dimethyl-4-(4-(quinoline-8-sulfonamido)benzoyl)piperazine-1-carboxylate]"
9,500 to 1000,"CCOC(=O)N1CCN(C(=O)c2ccc(NS(=O)(=O)c3cccc4cccnc34)cc2)[C@@H](C)C1 [Compound 107, (S)-Ethyl 3-methyl-4-(4-(quinoline-8-sulfonamido)benzoyl)piperazine-1-carboxylate]"
10,< 100,"CC(C)OC(=O)N1CCN(C(=O)c2ccc(NS(=O)(=O)c3cccc4cccnc34)cc2)[C@@H](C)C1 [Compound 108, (S)-isopropyl 3-methyl-4-(4-(quinoline-8-sulfonamido)benzoyl)piperazine-1-carboxylate]"
11,100 to 500,"CCOC(=O)N1CCN(C(=O)c2ccc(NS(=O)(=O)c3cccc4cccnc34)cc2)[C@H](C)C1 [Compound 109, (R)-Ethyl 3-methyl-4-(4-(quinoline-8-sulfonamido)benzoyl)piperazine-1-carboxylate]"
12,< 100,"CC(C)OC(=O)N1CCN(C(=O)c2ccc(NS(=O)(=O)c3cccc4cccnc34)cc2)[C@H](C)C1 [Compound 110, (R)-Isopropyl 3-methyl-4-(4-(quinoline-8-sulfonamido)benzoyl)piperazine-1-carboxylate]"
13,< 100,"C[C@H]1CN(C(=O)OCC2CC2)CCN1C(=O)c1ccc(NS(=O)(=O)c2cccc3cccnc23)cc1 [Compound 111, (S)-Cyclopropylmethyl3-methyl-4-(4-(quinoline-8-sulfonamido)benzoyl)piperazine-1-carboxylate]"
14,< 100,"C[C@@H]1CN(C(=O)OCC2CC2)CCN1C(=O)c1ccc(NS(=O)(=O)c2cccc3cccnc23)cc1 [Compound 112, (R)-Cyclopropylmethyl 3-methyl-4-(4-(quinoline-8-sulfonamido)benzoyl)piperazine-1-carboxylate]"
15,< 100,"C[C@@H]1CN(CC2CC2)CCN1C(=O)c1ccc(NS(=O)(=O)c2cccc3cccnc23)cc1 [Compound 113, (R)—N-(4-(4-(cyclopropylmethyl)-2-methylpiperazine-1-carbonyl)phenyl)quinoline-8-sulfonamide]"
16,< 100,"C[C@@H]1CN(CC2CCCC2)CCN1C(=O)c1ccc(NS(=O)(=O)c2cccc3cccnc23)cc1 [Compound 114, (R)—N-(4-(4-(cyclopentylmethyl)-2-methylpiperazine-1-carbonyl)phenyl)quinoline-8-sulfonamide]"
17,100 to 500,"C[C@@H]1CN(CC2CCOC2)CCN1C(=O)c1ccc(NS(=O)(=O)c2cccc3cccnc23)cc1 (stereo partly drawn) [Compound 115, N-(4-((2R)-2-methyl-4-((tetrahydrofuran-3-yl)methyl)piperazine-1-carbonyl)phenyl)quinoline-8-sulfonamide]"

row,AC50 [nM],SMILES
1,> 20000,"CCOC(=O)N1[C@H](C)CN(C(=O)c2ccc(NS(=O)(=O)c3cccc4cccnc34)cc2)C[C@@H]1C [Compound 117, (2S,6R)-ethyl 2,6-dimethyl-4-(4-(quinoline-8-sulfonamido)benzoyl)piperazine-1-carboxylate]"
2,< 100,"C[C@@H]1CN(Cc2ccc(F)c(F)c2F)CCN1C(=O)c1ccc(NS(=O)(=O)c2cccc3cccnc23)cc1 [Compound 118, (R)—N-(4-(2-methyl-4-(2,3,4-trifluorobenzyl)piperazine-1-carbonyl)phenyl)quinoline-8-sulfonamide]"
3,< 100,"C[C@@H]1CN(Cc2cc(F)cc(F)c2)CCN1C(=O)c1ccc(NS(=O)(=O)c2cccc3cccnc23)cc1 [Compound 119, (R)—N-(4-(4-(3,5-difluorobenzyl)-2-methylpiperazine-1-carbonyl)phenyl)quinoline-8-sulfonamide]"
4,< 100,"C[C@@H]1CN(Cc2cc(F)c(F)cc2F)CCN1C(=O)c1ccc(NS(=O)(=O)c2cccc3cccnc23)cc1 [Compound 120, (R)—N-(4-(2-methyl-4-(2,4,5-trifluorobenzyl)piperazine-1-carbonyl)phenyl)quinoline-8-sulfonamide]"
5,100 to 500,"C[C@@H]1CN(C(=O)OCCC2CCCCC2)CCN1C(=O)c1ccc(NS(=O)(=O)c2cccc3cccnc23)cc1 [Compound 121, (R)-2-Cyclohexylethyl 3-methyl-4-(4-(quinoline-8-sulfonamido)benzoyl)piperazine-1-carboxylate]"
6,< 100,"C[C@@H]1CN(C(=O)OCCC2CCCC2)CCN1C(=O)c1ccc(NS(=O)(=O)c2cccc3cccnc23)cc1 [Compound 122, (R)-2-Cyclopentylethyl-3-methyl-4-(4-(quinoline-8-sulfonamido)benzoyl)piperazine-1-carboxylate]"
7,< 100,"C[C@@H]1CN(C(=O)OC2CCCCC2)CCN1C(=O)c1ccc(NS(=O)(=O)c2cccc3cccnc23)cc1 [Compound 123, (R)-Cyclohexyl 3-methyl-4-(4-(quinoline-8-sulfonamido)benzoyl)piperazine-1-carboxylate]"
8,100 to 500,"C[C@@H]1CN(C(=O)OC2CCOCC2)CCN1C(=O)c1ccc(NS(=O)(=O)c2cccc3cccnc23)cc1 [Compound 124, (R)-Tetrahydro-2H-pyran-4-yl-3-methyl-4-(4-(quinoline-8-sulfonamido)benzoyl)piperazine-1-carboxylate]"
9,< 100,"C[C@@H]1CN(Cc2ccc(Cl)c(F)c2)CCN1C(=O)c1ccc(NS(=O)(=O)c2cccc3cccnc23)cc1 [Compound 125, (R)—N-(4-(4-(4-chloro-3-fluorobenzyl)-2-methylpiperazine-1-carbonyl)phenyl)quinoline-8-sulfonamide]"
10,100 to 500,"C[C@@H]1CN(C(=O)O[C@@H]2CCOC2)CCN1C(=O)c1ccc(NS(=O)(=O)c2cccc3cccnc23)cc1 [Compound 126, (R)—((R)-tetrahydrofuran-3-yl)-3-methyl-4-(4-(quinoline-8-sulfonamido)benzoyl)piperazine-1-carboxylate]"
11,100 to 500,"C[C@@H]1CN(C(=O)O[C@@H]2CCCOC2)CCN1C(=O)c1ccc(NS(=O)(=O)c2cccc3cccnc23)cc1 [Compound 127, (R)—((R)-tetrahydro-21′-pyran-3-yl)-3-methyl-4-(4-(quinoline-8-sulfonamido)benzoyl)piperazine-1-carboxylate]"
12,< 100,"C[C@@H]1CN(C(=O)OCC2CCCO2)CCN1C(=O)c1ccc(NS(=O)(=O)c2cccc3cccnc23)cc1 (stereo partly drawn) [Compound 128, (3R)-(Tetrahydrofuran-2-yl)methyl3-methyl-4-(4-(quinoline-8-sulfonamido)benzoyl)piperazine-1-carboxylate]"
13,< 100,"COc1cccc(CN2CCN(C(=O)c3ccc(NS(=O)(=O)c4cccc5cccnc45)cc3)[C@H](C)C2)c1OC [Compound 130, (R)—N-(4-(4-(2,3-dimethoxybenzyl)-2-methylpiperazine-1-carbonyl)phenyl)quinoline-8-sulfonamide]"
14,< 100,"C[C@@H]1CN(Cc2ccc(F)cc2)CCN1C(=O)c1ccc(NS(=O)(=O)c2cccc3cccnc23)cc1 [Compound 131, (R)—N-(4-(4-(4-fluorobenzyl)-2-methylpiperazine-1-carbonyl)phenyl)quinoline-8-sulfonamide]"
15,< 100,"C[C@@H]1CN(Cc2c(F)ccc(F)c2F)CCN1C(=O)c1ccc(NS(=O)(=O)c2cccc3cccnc23)cc1 [Compound 132, (R)—N-(4-(2-methyl-4-(2,3,6-trifluorobenzyl)piperazine-1-carbonyl)phenyl)quinoline-8-sulfonamide]"
16,< 100,"CC(c1ccc(F)cc1)N1CCN(C(=O)c2ccc(NS(=O)(=O)c3cccc4cccnc34)cc2)[C@H](C)C1 (stereo partly drawn) [Compound 133, N-(4-((2R)-4-(1-(4-fluorophenyl)ethyl)-2-methylpiperazine-1-carbonyl)phenyl)quinoline-8-sulfonamide]"
17,100 to 500,"CC[C@H]1CN(Cc2ccc(F)cc2)CCN1C(=O)c1ccc(NS(=O)(=O)c2cccc3cccnc23)cc1 [Compound 134, (S)—N-(4-(2-ethyl-4-(4-fluorobenzyl)piperazine-1-carbonyl)phenyl)quinoline-8-sulfonamide]"
